Where a name gives a salt, the structure may show the parent alone.
Assays:
Type in all cases: in vivo, mouse
MRL/Mp-lpr/lpr mice [1] = assay: Suppression of glomerulonephritis (Mac 2 number per glomerulus) by concomitant use of toremifene citrate with glucocorticoid; details: for change in Mac 2 number as compared with the control (in words): all dose groups, 9 weeks, t-test
Method: Twelve-week old female MRL/Mp-lpr/lpr mice were used in the examination. Thirty miligrams per kg or 15 mg/kg of toremifene citrate (TOR) was orally administered to each mouse twice a day for 9 weeks from the 12th week to the 21st week. A glucocorticoid (prednisolone), 8, 4 and 2 mg/kg/day, were subcutaneously administered to mice once a day as a positive control drug. The concomitant use of tremifene with the glucocorticoid was also carried out according to the same regimen as above. The kidney was taken out from each mouse the day after the completion of the whole administration period and fixed in a PLP fixative. Frozen sections were made from the fixed kidney and used for an immunostaining with an anti-Mac-2 monoclonal antibody (Hybritec Inc., San Diego, USA). The number of Mac-2 positive cells (activated macrophages) invading each of 10 to 20 glomeruli of the kidney, which is hereinafter referred to as Mac 2 number, was counted under a microscopy to determine an average Mac 2 number per glomerulus. The degree of severeness of glomerulonephritis was estimated in terms of the average Mac 2 number (n=13 for each group).

MRL/Mp-lpr/lpr mice [2] = assay: Inhibition of sialadenitis, angitis and arthritis of MRL/Mp-lpr/lpr mice (histopathology); details: 100 mg/kg orally once a day for 13 weeks
Method: (§1) Eight-week old female MRL/Mp-lpr/lpr mice (Clea Japan, Inc.) were used in this examination. Toremifene citrate (JP-B-4 19973) was suspended in carboxymethylcellulose to prepare a 0.5% suspension. This compound (100 mg/kg) was orally administered to each mouse once a day for 13 weeks.
The salivary gland, renal blood vessel and knee joint of each mouse in the control group and the toremifene citrate treated group were histopathologically examined.
1) The salivary gland, kidney and knee joint were fixed in 10% buffered formalin, and then paraffin sections thereof were prepared by an ordinary method to prepare HE and PAS stained specimens. The extent of the disorder was scored and classified into the following groups: […]

MRL/Mp-lpr/lpr mice [3] = assay: Suppression of renal disorder (glomerulonephritis score, BUN) of MRL/Mp-lpr/lpr mice; details: 100 mg/kg orally once a day for 13 weeks
Method: as §1
An autopsy was performed on the mice of the control group and the toremifene citrate treated group after the completion of the administration to examine their kidneys pathohistologically. The blood urea nitrogen (BUN) of the serum in each group was examined to confirm changes in the renal function.
1) The kidney was fixed in 10% buffered formalin, and then paraffin sections thereof were prepared by an ordinary method to prepare HE and PAS stained specimens. The extent of the disorder of the renal glomeruli was scored and classified into the following groups:
2) The BUN was determined with a Fuji Dry Chem Analyzer.

MRL/Mp-lpr/lpr mice [4] = assay: Inhibition of swelling of spleen and lymph node of MRL/Mp-lpr/lpr mice; details: 100 mg/kg orally once a day for 13 weeks
Method: as §1

[5] = system: NZB×NZW mice (B/W F1 mice); assay: Comparison of survival time of NZB×NZW F1 mice; details: for animals alive after one year / animals died at/before the age of 40 weeks / animals still alive after almost two years' time: female mice; for animals alive after one year: female control 20%; for animals died at/before the age of 40 weeks: female control 50% died
Method: NZB×NZW mice (B/W F1 mice) were used as a pathological model of autoimmune diseases (systemic lupus erythematodes). Effect of toremifene citrate on the survival time of the animals was investigated.
F1-hybrids of NZB (female) and NZW (male) mice (B/W F1 mice): Imported from Bomholtgaard, Denmark at the age of five weeks.
Toremifene citrate 30 mg/kg/day: administration 70 mg/kg in polyethylene glycol solution 3 times a week per os to female NZB×NZW F1 mice
Toremifene citrate 3 mg/kg/day: administration 7 mg/kg in polyethylene glycol solution 3 times a week per os to female NZB×NZW F1 mice
All but two female control animals have died during the almost two years' follow-up time. Fifty percents of the animals in this group died before/at the age of 40 weeks, and 20% (4/20) were alive after one year.

[6] = 3 mg/kg/day (7 mg/kg 3 times a week per os)
[7] = 30 mg/kg/day (70 mg/kg 3 times a week per os)

C[C@]12C=CC(=O)C=C1CC[C@@H]1[C@@H]2[C@@H](O)C[C@@]2(C)[C@H]1CC[C@]2(O)C(=O)CO [Prednisolone, prednisolone]
change in Mac 2 number as compared with the control (in words) (MRL/Mp-lpr/lpr mice [1]): did not exhibit any significant decrease in Mac 2 number
Mac 2 number (MRL/Mp-lpr/lpr mice [1]; prednisolone 2 mg/kg subcutaneously once a day for 9 weeks, first series, control 7.5 ± 1.5): 9.4 ± 1.0
Mac 2 number (MRL/Mp-lpr/lpr mice [1]; prednisolone 2 mg/kg subcutaneously once a day for 9 weeks, second series, control 11.3 ± 1.2): 7.7 ± 1.0
Mac 2 number (MRL/Mp-lpr/lpr mice [1]; prednisolone 4 mg/kg subcutaneously once a day for 9 weeks, first series, control 7.5 ± 1.5): 7.9 ± 0.7
Mac 2 number (MRL/Mp-lpr/lpr mice [1]; prednisolone 4 mg/kg subcutaneously once a day for 9 weeks, second series, control 11.3 ± 1.2): 9.1 ± 1.4
Mac 2 number (MRL/Mp-lpr/lpr mice [1]; prednisolone 8 mg/kg subcutaneously once a day for 9 weeks, first series, control 7.5 ± 1.5): 5.8 ± 0.8

CN(C)CCOc1ccc(/C(=C(/CCCl)c2ccccc2)c2ccccc2)cc1 [Toremifene citrate, 2[4-(Z)-4-Chloro-1,2-Diphenyl-1-Butenyl]Phenoxy-N,N-Dimethylethylamine Citrate]
attack by sialadenitis, angitis and arthritis (in words) (MRL/Mp-lpr/lpr mice [2]): prevented the mice from being attacked by sialadenitis, angitis and arthritis
Arthritis (score 0-3) (MRL/Mp-lpr/lpr mice [2]; knee joint, mean ± standard deviation, control 1.6 ± 0.9): 0.4 ± 0.5
Angitis (score 0-3) (MRL/Mp-lpr/lpr mice [2]; renal blood vessel, mean ± standard deviation, control 2.1 ± 0.7): 0.9 ± 0.8
Sialadenitis (score 0-3) (MRL/Mp-lpr/lpr mice [2]; salivary gland, mean ± standard deviation, control 2.2 ± 0.6): 0.9 ± 0.8
glomerulonephritis (in words) (MRL/Mp-lpr/lpr mice [3]): ameliorated the glomerulonephritis
renal function (in words) (MRL/Mp-lpr/lpr mice [3]): healed the renal function
Glomerulonephritis (score 0-3, average of 25 renal glomeruli) (MRL/Mp-lpr/lpr mice [3]; mean ± standard deviation, control 2.4 ± 0.7): 1.2 ± 0.7
BUN (MRL/Mp-lpr/lpr mice [3]; serum, mean ± standard deviation, control 43.1 ± 23.9): 24.6 ± 4.9 mg/dL
swelling of the spleen and lymph node (in words) (MRL/Mp-lpr/lpr mice [4]): inhibited the swelling of the spleen and lymph node
swelling of spleen ([formula]) (MRL/Mp-lpr/lpr mice [4]; 8-week old female mice, mean ± standard deviation, control 2.34 ± 0.74): 1.38 ± 1.06
swelling of lymph node ([formula]) (MRL/Mp-lpr/lpr mice [4]; 8-week old female mice, mean ± standard deviation, control 6.77 ± 1.70): 3.11 ± 1.43
Mac 2 number (MRL/Mp-lpr/lpr mice [1]; TOR 15 mg/kg orally twice a day for 9 weeks, first series, control 7.5 ± 1.5): 6.5 ± 1.2
Mac 2 number (MRL/Mp-lpr/lpr mice [1]; TOR 30 mg/kg orally twice a day for 9 weeks, first series, control 7.5 ± 1.5): 6.2 ± 1.0
change in Mac 2 number as compared with the control (in words) (MRL/Mp-lpr/lpr mice [1]): did not exhibit any significant decrease in Mac 2 number
animals alive after one year [5, 6]: 80%
animals died at/before the age of 40 weeks [5, 6]: 1/20
animals alive after one year [5, 7]: 85%
animals died at/before the age of 40 weeks [5, 7]: 3/20
life span compared to the female control animals (in words) ([5]; both treatment groups (3 and 30 mg/kg/day)): lengthened clearly
animals still alive after almost two years' time ([5]; higher dosage group (30 mg/kg/day)): 10%
animals still alive after almost two years' time ([5]; lower dosage group (3 mg/kg/day)): 25%

— US20020107231A1, “Remedy for autoimmune diseases” (priority 1992, published 2002)
